Assay: Mean group body weight in the rat MIA study
Assay type: in vivo, Rat Ola Wistar
Details: morphine 10 mg/kg SC, mAbs 8 mg/kg SC
Text: Mean group body weight for all groups (g).

For `CN1CC[C@]23c4c5ccc(O)c4O[C@H]2[C@@H](O)C=C[C@H]3[C@H]1C5` [Morphine], the “Mean group body weight, Baseline” value was 178.5 g, the “Mean group body weight, Day 7” value was 256.2 g and the “Mean group body weight, Day 14” value was 285.1 g. For the same molecule, the “Mean group body weight, Day 21” value was 300.6 g and the “Mean group body weight, Day 27” value was 316 g.

Reference: patent US9951128B2, “Caninized anti-NGF antibodies and methods thereof” (ZOETIS SERVICES LLC, priority 2012, dated 2018)
